Laboratory results: ChEMBL document CHEMBL2074357, “Identification and functional assessment of the novel murine organic anion transporter Oat5 (Slc22a19) expressed in kidney” (Am J Physiol Renal Physiol, 2004)

What was measured:
Assay type in all cases: functional, cell-based
[1] = biological target: T1, Solute carrier family 22 member 19 (Mus musculus) (UniProt Q8VCA0); test: TP_TRANSPORTER: inhibition of (Ochratoxin A: 0.5uM) of Probenecid at a concentration of 1000uM in Oat5-expressing Xenopus oocytes; design: scale not given: the % may be the effect or the level left; conditions: Xenopus laevis, Oocyte
T1 sequence (whole entry): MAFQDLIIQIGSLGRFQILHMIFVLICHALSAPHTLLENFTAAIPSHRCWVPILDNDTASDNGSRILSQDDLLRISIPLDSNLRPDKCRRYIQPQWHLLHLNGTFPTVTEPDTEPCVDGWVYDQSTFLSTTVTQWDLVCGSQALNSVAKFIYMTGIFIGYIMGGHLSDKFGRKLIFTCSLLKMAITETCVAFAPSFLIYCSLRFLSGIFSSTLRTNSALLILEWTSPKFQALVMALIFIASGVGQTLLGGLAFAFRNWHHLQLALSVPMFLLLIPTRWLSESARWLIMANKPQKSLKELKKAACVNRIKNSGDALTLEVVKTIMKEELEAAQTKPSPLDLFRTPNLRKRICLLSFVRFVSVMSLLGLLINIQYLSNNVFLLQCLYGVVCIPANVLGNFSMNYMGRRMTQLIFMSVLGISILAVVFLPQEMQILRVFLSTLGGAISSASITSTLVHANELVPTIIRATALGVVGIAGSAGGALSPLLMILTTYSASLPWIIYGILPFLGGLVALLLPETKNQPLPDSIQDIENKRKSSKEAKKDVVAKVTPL

[2] = biological target: T1, Solute carrier family 22 member 19 (Mus musculus); test: TP_TRANSPORTER: inhibition of (Ochratoxin A: 0.5uM) of 2,4-dichlorophenoxyacetic acid at a concentration of 100uM in Oat5-expressing oocytes; design: scale not given: the % may be the effect or the level left; conditions: Xenopus laevis, Oocyte
[3] = biological target: T1, Solute carrier family 22 member 19 (Mus musculus); test: TP_TRANSPORTER: inhibition of (Ochratoxin A: 0.5uM) of Estrone-3-sulfate at a concentration of 100uM in Oat5-expressing oocytes; design: scale not given: the % may be the effect or the level left; conditions: Xenopus laevis, Oocyte
[4] = substrate: C[C@@H]1Cc2c(Cl)cc(C(=O)N[C@@H](Cc3ccccc3)C(=O)O)c(O)c2C(=O)O1; test: TP_TRANSPORTER: uptake in Oat5-expressing oocytes; conditions: Xenopus laevis; Oocyte

Molecule: CCCN(CCC)S(=O)(=O)c1ccc(C(=O)O)cc1
- Activity [1]: 25%

Molecule: O=C(O)COc1ccc(Cl)cc1Cl
- Activity [2]: 25%

Molecule: C[C@]12CC[C@@H]3c4ccc(OS(=O)(=O)O)cc4CC[C@H]3[C@@H]1CCC2=O
- Activity [3]: 5%

B1: Solute carrier family 22 member 19 (Mus musculus), Q8VCA0 (protein)
chain: T1 sequence (whole entry)
- Km [4]: 2 µM
